Experiments:
Human thrombin = Human thrombin (Homo sapiens, UniProt P00734); experiment: Inhibition and light reactivation of thrombin by R-NH-CINN-AP inhibitors, S-2238 chromogenic assay; format: biochemical; details: for Inhibition after 16 Hrs Incubation (%): ambient temperature, dark; for Light Reactivation (%): after 10 seconds of blue light, activity light/activity control
Description: (§1) R is -tBOC, —H2^+, or mPEG5000. Human thrombin was modified with R—NH-CINN-AP inhibitors as follows: Thrombin (600 units; ˜3.5 nmol) in 50 mM sodium citrate buffer, 3 mM CaCl2, 7% kollidon, pH 7.0, was reacted with 3.5-35 nmol of the R—N-CINN-AP inhibitor for 12-18 hours at ambient temperature in the dark. Thrombin activities were measured under red light (“dark”) and after exposure to 10 seconds of blue light from a dental light and were assayed using S-2238 (diaPharma) at 30° C. Percentage inhibition was calculated as 100—dark activity. Dark activity was calculated as [activitydark÷activitycontrol]×100. Light reactivation was calculated as activitylight÷activtycontrol. The following are typical results.

Human tPA (Activase) = target: T1, Human tPA (Activase) (Homo sapiens, UniProt P00750); experiment: Inhibition and light reactivation of tPA by Rz-NH-CINN-AP inhibitors, S-2288 chromogenic assay; format: biochemical; details: for Inhibition after 16 hrs incubation (%): ambient temperature, dark; for Light Reactivation (%): after blue light
T1 construct: purchased Genentech Inc. Lot # E9034A
T1 sequence (P00750 36-562): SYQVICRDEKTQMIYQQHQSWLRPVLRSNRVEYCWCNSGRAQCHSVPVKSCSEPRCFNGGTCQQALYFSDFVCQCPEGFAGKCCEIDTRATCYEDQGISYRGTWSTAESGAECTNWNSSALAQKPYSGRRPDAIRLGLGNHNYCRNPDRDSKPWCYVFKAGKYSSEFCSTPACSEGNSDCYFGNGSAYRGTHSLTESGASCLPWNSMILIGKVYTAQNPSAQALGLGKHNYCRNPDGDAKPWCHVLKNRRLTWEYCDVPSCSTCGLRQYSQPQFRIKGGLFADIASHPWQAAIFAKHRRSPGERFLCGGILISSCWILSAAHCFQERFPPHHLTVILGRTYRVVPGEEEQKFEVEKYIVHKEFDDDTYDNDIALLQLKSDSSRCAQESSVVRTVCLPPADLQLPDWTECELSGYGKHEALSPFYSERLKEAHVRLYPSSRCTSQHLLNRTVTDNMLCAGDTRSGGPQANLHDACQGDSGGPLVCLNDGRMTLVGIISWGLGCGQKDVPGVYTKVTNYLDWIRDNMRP
Description: as §1
R2 is -tBOC, —-H2^+, or mPEG5000. The procedures of Examnple 4 was repeated except that Human tPA (Activase, Genentech Inc. Lot # E9034A) was modified with Rz—NH-CINN-AP inhibitors in place of thrombin. The reactions were carried out as follows: tPA (0.83 nmol) in 10 mM tris-HCl, 130 mM NaCl, pH 7.4 was reacted with 0.8 3-8.3 nmoles of the R—NH CINN-AP inhibitors for 12-18 hours at ambient temperature in the dark. Activities were calculated as for Example 4, using S-2288 (diaPharna).

[1] = Solubility in aqueous solution after removal of t-BOC; format: physicochemical; details: neutralized to pH 7.0
Description: 3-[2-hydroxy-4-(ethyl)(2-tert-butyloxycarbamidoethyl)amino]phenyl-2-methylpropenoic acid, 4-aminoiminophenyl ester, HCl salt (15; 12 mg, 25 μmmol) was suspended in 1.2 ml of 3N HCl and mixed by inversion for 3 hours at ambient temperature to release the t-BOC group and generate 3-[2-hydroxy-4-(ethyl) aminoethyl)amino]phenyl-2-methylpropenoic acid, 4-aminoiminophenyl ester, HCl salt (16; N-CINN-AP). After 3 hours, the reaction was neutralized with 3N NaOH to give a final pH of 7.0.

Row | Structure (SMILES) | Inhibition after 16 Hrs Incubation (%) (Human thrombin; inhibitor excess 1×) | Inhibition after 16 Hrs Incubation (%) (Human thrombin; inhibitor excess 5×) | Light Reactivation (%) (Human thrombin; inhibitor excess 10×) | Inhibition after 16 Hrs Incubation (%) (Human thrombin; inhibitor excess 10×) | Inhibition after 16 hrs incubation (%) (Human tPA (Activase); inhibitor excess 5×) | Light Reactivation (%) (Human tPA (Activase); inhibitor excess 10×) | Inhibition after 16 hrs incubation (%) (Human tPA (Activase); inhibitor excess 10×) | Thrombin inhibition (in words) (Human thrombin; summary of Table 1) | tPA inhibition (in words) (Human tPA (Activase); Table 2) | Solubility (in words) [1]
1 | CCN(CCNC(=O)OC(C)(C)C)c1ccc(C=C(C)C(=O)Oc2ccc(C(=N)N)cc2)c(O)c1.Cl [#15, 3-[2-hydroxy-4-(ethyl)(2-tert-butyloxycarbamidoethyl)amino]-phenyl-2-methylpropenoic acid, 4-aminoiminophenyl ester, HCl salt] | 94% | 98% | 72% | 97% | 95% | 87% | 95% |  |  | 
2 | CCN(CCN)c1ccc(C=C(C)C(=O)Oc2ccc(C(=N)N)cc2)c(O)c1.Cl [#16] | 21% | 70% | 64% | 96% | 78% | 78% | 88% | less effective inhibitor at lower molar ratios | less effective inhibitor at lower molar ratios | soluble in aqueous solution
